Experimental data from the Kinase Knowledgebase extract (Sharma et al. 2016).

Assays:
MAPK14 [1] = biological target: MAPK14 (UniProt Q16539); assay: CSBP Binding Inhibition
MAPK14 [2] = biological target: MAPK14 (UniProt Q16539); assay: CSBP Kinase Inhibition

Chain of MAPK14 (Q16539 whole entry, looked up): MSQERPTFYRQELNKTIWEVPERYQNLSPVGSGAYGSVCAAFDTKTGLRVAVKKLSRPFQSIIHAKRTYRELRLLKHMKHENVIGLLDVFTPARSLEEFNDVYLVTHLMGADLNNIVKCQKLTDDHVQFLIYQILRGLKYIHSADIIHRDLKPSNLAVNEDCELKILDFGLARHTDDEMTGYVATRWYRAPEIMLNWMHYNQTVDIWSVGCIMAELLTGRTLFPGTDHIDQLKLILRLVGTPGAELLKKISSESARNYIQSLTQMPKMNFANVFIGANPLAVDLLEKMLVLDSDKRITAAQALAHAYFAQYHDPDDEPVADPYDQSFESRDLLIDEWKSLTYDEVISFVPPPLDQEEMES

Which IC50 (MAPK14 [1]) does the source give for `O=C1CCC(n2cnc(-c3ccc(F)cc3)c2-c2ccnc(O)n2)CC1` here?
Its IC50 is under 50 µM.

For `CSc1nccc(-c2c(-c3ccc(F)cc3)ncn2C2CCC(=O)CC2)n1`, which IC50 (MAPK14 [1]) is on record?
The IC50 was under 50 µM.

Which IC50 (MAPK14 [1]) does the source give for `COc1nccc(-c2c(-c3ccc(F)cc3)ncn2[C@H]2CC[C@@](C)(O)CC2)n1.COc1nccc(-c2c(-c3ccc(F)cc3)ncn2[C@H]2CC[C@](C)(O)CC2)n1` here?
Its IC50 is under 50 µM.

Which IC50 (MAPK14 [1]) does the source give for `CC(C)Oc1nccc(-c2c(-c3ccc(F)cc3)ncn2C2CCC(O)CC2)n1` (stereo not given) here?
The IC50 was under 50 µM.

How did the IC50 (MAPK14 [2]) turn out when `COc1nccc(-c2c(-c3ccc(F)cc3)ncn2[C@H]2CC[C@H](N)CC2)n1` was run?
The IC50 was under 50 µM.

How did the IC50 (MAPK14 [2]) turn out when `COc1nccc(-c2c(-c3ccc(F)cc3)ncn2[C@H]2CC[C@](C)(O)CC2)n1` was run?
The IC50 was under 50 µM.

Which IC50 (MAPK14 [1]) does the source give for `CC(C)Oc1nccc(-c2c(-c3ccc(F)cc3)ncn2C2CCC(=O)CC2)n1` here?
Its IC50 is under 50 µM.

`COc1nccc(-c2c(-c3ccc(F)cc3)ncn2[C@H]2CC[C@@H](N)CC2)n1` was tested. Which IC50 (MAPK14 [2]) did it give?
Its IC50 is under 50 µM.

`COc1nccc(-c2c(-c3ccc(F)cc3)ncn2[C@H]2CC[C@H](OC3CCCCO3)CC2)n1` (stereo not given in full) was tested. Which IC50 (MAPK14 [2]) did it give?
Its IC50 is under 50 µM.

`COc1nccc(-c2c(-c3ccc(F)cc3)ncn2C2CCC(=O)CC2)n1` was tested. Which IC50 (MAPK14 [1]) did it give?
The IC50 was under 50 µM.

With `CCCC(=O)O[C@H]1CC[C@H](n2cnc(-c3ccc(F)cc3)c2-c2ccnc(OC)n2)CC1` as the compound, how does the IC50 (MAPK14 [2]) read?
The IC50 was under 50 µM.

With `COc1nccc(-c2c(-c3ccc(F)cc3)ncn2[C@H]2CC[C@@](C)(O)CC2)n1` as the compound, how does the IC50 (MAPK14 [2]) read?
Its IC50 is under 50 µM.

`CSc1nccc(-c2c(-c3ccc(F)cc3)ncn2[C@H]2CC[C@H](O)CC2)n1` was tested. Which IC50 (MAPK14 [1]) did it give?
Its IC50 is under 50 µM.

Which IC50 (MAPK14 [2]) does the source give for `COc1nccc(-c2c(-c3ccc(F)cc3)ncn2[C@H]2CC[C@@](O)(CO)CC2)n1.COc1nccc(-c2c(-c3ccc(F)cc3)ncn2[C@H]2CC[C@](O)(CO)CC2)n1` here?
The IC50 was under 50 µM.

Which IC50 (MAPK14 [2]) does the source give for `Oc1nccc(-c2c(-c3ccc(F)cc3)ncn2C2CCC(O)CC2)n1` (stereo not given) here?
Its IC50 is under 50 µM.
